In test [1] the target is T1, RORγ ligand binding domain (Homo sapiens, UniProt P51449). Kind of test: RORγ co-factor recruitment assay (FRET). The following applies: inhibition of recruitment of SRC-1 peptide (NCOA1_677-700) to hRORγ LBD, HTRF read-out. It counts as biochemical. On the set-up: made in house; host or cells: E. coli BL21DE3 Star. In a few lines:
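Inverse-agonist TR-FRET measuring biotinylated SRC-1 peptide (NCOA1 677-700, 160 nM in pre-mix) recruitment to E. coli-expressed biotinylated HN-Avi-MBP-TCS-hRORγ LBD (258-518; 100 nM in pre-mix), with Eu-streptavidin and streptavidin-APC, in MOPS pH 7.4 buffer, 1 h at rt. 665/612 nm ratio normalised to vehicle and reference control; IC50 from curve fit.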
(Time-resolved FRET reads energy transfer from a long-lived donor to a nearby acceptor.)

In test [2] the target is T1, RORγ ligand binding domain. The experiment in a line: RORγ radioligand competition binding assay (SPA). The following applies: competition with tritiated 2-(4-(ethylsulfonyl)phenyl)-N-(4-(2-(methoxymethyl)phenyl)thiophen-2-yl)acetamide (25 nM), hRORγ LBD. In a few lines: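 SPA competition on E. coli-expressed N-6×HN-Avi-GST-TCS-hRORγ LBD (S258-K518), 4 nM on YOx glutathione beads, in 20 mM Tris, 150 mM NaCl, 10% glycerol, 0.25% CHAPS, 1 mM TCEP. Compound pre-incubation 1 h RT, then 25 nM tritiated tracer for 16 h. IC50 normalized to vehicle/reference controls; Ki = IC50/(1+[L]/Kd), Kd 17 nmol/L.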
Background: Displacement assays read how much labelled ligand stays bound in the presence of the test substance.

The next test has as its system human TH17 cells. The experiment in a line: Inhibition of IL-17 release from human TH17 cells. In kind it is cell-based. The note with it: 96 h; isolated human TH17 cells cultured 4 days, IL-17A in supernatant by HTRF; read-out: pIC50 IL-17 release (converted). An excerpt: Inhibition of IL-17 Release from Human TH17 Cells
This test is designed to screen compounds for their inhibitory effect on the release of IL-17 from isolated and cultured human TH17 cells.
Peripheral blood mononuclear cells (PBMC) were isolated from heparin treated human whole blood from healthy donors by density gradient centrifugation. TH17 cells (CD4+CXCR3−CCR6+) were enriched using a human TH17 Cell Enrichment Kit (Stemcell Technologies) according to the manufacturer's protocol. The isolated TH17 cells were activated with aCD3aCD28 beads (MACS Miltenyi) and cultured in X-Vivo15 medium (Lonza) supplemented with L-glutamine, β-mercaptoethanol and a cytokine cocktail consisting of; IL-2, IL-23, IL-1β, IL-6, TGF-β. Cells were seeded at 8000 cells/well in a 384-plate (Corning, #3707) in the presence of compounds or DMSO and cultured for 4 days (37° C., 5% CO2). On day 4 supernatants were collected and IL-17A was measured using a Human IL-17 HTRF Assay kit (Cisbio Bioassays) according to the manufacturer's protocol. The IC50 values for the tested compounds was calculated using Genedata Screener® software (Genedata) using the following calculation method; Compound % effect=100*[(X−min)/(max−min)], where X represents the normalized value for the compound based on the Min (DMSO) and Max (compound 3-(1,3-benzodioxol-5-yl)-1-(3,5-dimethylpiperidin-1-yl)-3-(2-hydroxy-4,6-dimethoxyphenyl)propan-1-one at 10 μM, described in J. R. Hu et al. ACS Med. Chem. Lett. 2013, 4, 79-84) inhibition controls. Results

On to `CC(=O)N1Cc2cc(S(C)(=O)=O)ccc2C1C(=O)Nc1ccc(C(CC(=O)NC(C)(C)C)(C(F)(F)F)C(F)(F)F)cc1` (stereo not drawn) [Example 43, 2-Acetyl-N-{4-[4-(tert-butylamino)-1,1,1-trifluoro-4-oxo-2-(trifluoromethyl)butan-2-yl]phenyl}-5-(methylsulfonyl)-2,3-dihydro-1H-isoindole-1-carboxamide], for which the IC50 is 158 nM in test [1], 794 nM in test [2] and 251 nM in the test with human TH17 cells.
The corresponding values for `CC(=O)N1Cc2cc(S(C)(=O)=O)ccc2C1C(=O)Nc1ccc(C(NC2COC2)(C(F)(F)F)C(F)(F)F)cc1` (stereo not drawn) [Example 19, 2-Acetyl-N-{4-[1,1,1,3,3,3-hexafluoro-2-(oxetan-3-ylamino)propan-2-yl]phenyl}-5-(methylsulfonyl)-2,3-dihydro-1H-isoindole-1-carboxamide] are 100 nM, 126 nM and 50.1 nM.
As for `CC(=O)N1Cc2cc(S(C)(=O)=O)ccc2C1C(=O)Nc1ccc(C(C#N)(C(F)(F)F)C(F)(F)F)cc1` (stereo not drawn) [Example 2, 2-Acetyl-N-[4-(2-cyano-1,1,1,3,3,3-hexafluoropropan-2-yl)phenyl]-5-(methylsulfonyl)-2,3-dihydro-1H-isoindole-1-carboxamide], the IC50 was 126 nM in test [1], 15.8 nM in test [2] and 10 nM in the test on human TH17 cells.
The corresponding values for `CC(=O)NCCC(c1ccc(NC(=O)C2c3ccc(S(C)(=O)=O)cc3CN2C(C)=O)cc1)(C(F)(F)F)C(F)(F)F` (stereo not drawn) [Example 45, 2-Acetyl-N-{4-[4-(acetylamino)-1,1,1-trifluoro-2-(trifluoromethyl)butan-2-yl]phenyl}-5-(methylsulfonyl)-2,3-dihydro-1H-isoindole-1-carboxamide] are 200 nM, 794 nM and 3160 nM.

Values taken from patent US11034654B2, “2,3-dihydroisoindole-1-carboxamides useful as ROR-gamma modulators” (AstraZeneca AB, priority 2017, dated 2021).
